Assay results from EPA's ToxRefDB 2.

Assays:
dog [1] = details: Chronic toxicity, beagle, Oral, Feed, dose end: 52 week, group: systemic
rat [2] = details: Subchronic oral toxicity in rodents, fischer, Feed, dose end: 90 day, group: systemic, systemic / clinical chemistry / thyroxine (t4) / thyroxine (t4), total + systemic / clinical chemistry / triiodothyronine (t3) / …
dog [3] = details: Subchronic oral toxicity in nonrodent, beagle, Feed, dose end: 13 week, group: systemic
mouse [4] = details: Subchronic oral toxicity in rodents, b6c3f1, Feed, dose end: 90 day, group: systemic
rat [5] = details: Prenatal developmental toxicity study, fischer, Oral, Gavage/Intubation, dose end: 15 GD
mouse [6] = details: Combined chronic toxicity/carcinogenicity; b6c3f1; Oral; Feed; dose end: 104 week; group: systemic; systemic / organ weight / kidney / absolute + systemic / organ weight / kidney / relative to body weight + systemic / pathology microscopic…
rat [7] = details: Combined chronic toxicity/carcinogenicity, fischer, Oral, [Not Specified], dose end: 24 month, group: systemic
dog [8] = details: Subchronic oral toxicity in nonrodent, beagle, Capsule, dose end: 13 week, group: systemic, systemic / clinical chemistry / creatinine / creatinine + systemic / clinical chemistry / urea nitrogen / urea nitrogen + systemic / in life…
rat [9] = details: Subchronic oral toxicity in rodents, sprague dawley, Feed, dose end: 90 day, group: systemic, systemic / in life observation / body weight / body weight + systemic / in life observation / body weight / body weight gain + systemic / in…
rat [10] = details: Combined chronic toxicity/carcinogenicity; sprague dawley; Oral; Feed; dose end: 104 week; group: systemic; systemic / in life observation / clinical signs / convulsions
rabbit [11] = details: Prenatal developmental toxicity study; himalayan; Oral; Gavage/Intubation; dose end: 18 GD; group: maternal; systemic / in life observation / body weight / body weight gain + systemic / in life observation / food consumption / food consumption
rat [12] = details: Sub-acute repeat dose toxicity, sprague dawley, Oral, Gavage/Intubation, dose end: 4 week, group: systemic
mouse [13] = details: Subchronic oral toxicity in rodents, cd1, Gavage/Intubation, dose end: 90 day, group: systemic
rabbit [14] = details: Prenatal developmental toxicity study, himalayan, Oral, Gavage/Intubation, dose end: 18 GD
dog [15] = details: Sub-acute repeat dose toxicity, beagle, Oral, Gavage/Intubation, dose end: 4 week, group: systemic
rat [16] = details: Prenatal developmental toxicity study, sprague dawley, Oral, Gavage/Intubation, dose end: 18 GD
rat [17] = details: Prenatal developmental toxicity study, sprague dawley, Oral, Gavage/Intubation, dose end: 18 GD; remark: listed apart in the source
rabbit [18] = details: Prenatal developmental toxicity study, himalayan, Oral, Gavage/Intubation, dose end: 19 GD
rat [19] = details: Carcinogenicity, wistar, Oral, Feed, dose end: 104 week, group: systemic
dog [20] = details: Subchronic oral toxicity in nonrodent, beagle, Feed, dose end: 90 day, group: systemic, systemic / clinical chemistry / alanine aminotransferase (alt/sgpt) / alanine aminotransferase (alt/sgpt) + systemic / clinical chemistry / …
rat [21] = details: Subchronic oral toxicity in rodents, wistar, Feed, dose end: 90 day, group: systemic
rat [22] = details: Chronic toxicity, wistar, Oral, Feed, dose end: 12 month, group: systemic
[23] = systemic / clinical chemistry / alanine aminotransferase (alt/sgpt) / alanine aminotransferase (alt/sgpt) + systemic / clinical chemistry / …
[24] = systemic / in life observation / body weight / body weight gain + systemic / pathology microscopic / kidney / pigmentation
[25] = systemic / in life observation / body weight / body weight + systemic / in life observation / body weight / body weight gain + systemic / in…
[26] = systemic / pathology microscopic / kidney / [other] + systemic / pathology microscopic / liver / nuclear alteration + systemic / pathology …
[27] = group: developmental, developmental / developmental malformation / bone / full supernumerary + developmental / developmental malformation / bone / incomplete …
[28] = group: maternal, systemic / in life observation / body weight / body weight gain
[29] = systemic / clinical chemistry / thyroxine (t4) / thyroxine (t4), total + systemic / organ weight / thyroid gland / absolute + systemic / …
[30] = systemic / pathology gross / thyroid gland / mass
[31] = systemic / hematology / hematocrit (hct) / hematocrit (hct) + systemic / hematology / hemoglobin (hgb) / hemoglobin (hgb)
[32] = systemic / hematology / hematocrit (hct) / hematocrit (hct) + systemic / hematology / hemoglobin (hgb) / hemoglobin (hgb) + systemic / in …
[33] = systemic / in life observation / body weight / body weight + systemic / organ weight / brain / relative to body weight + systemic / organ …
[34] = systemic / in life observation / body weight / body weight + systemic / organ weight / liver / relative to body weight + systemic / …
[35] = group: developmental, developmental / developmental malformation / bone / delayed ossification + developmental / developmental malformation / lung / [other]
[36] = group: developmental, developmental / developmental malformation / bone / delayed ossification + developmental / developmental malformation / lung / [other] + …
[37] = group: maternal, systemic / in life observation / body weight / body weight + systemic / in life observation / food consumption / food consumption
[38] = systemic / clinical chemistry / alkaline phosphatase (alp/alk) / alkaline phosphatase (alp/alk) + systemic / hematology / blood clotting / …
[39] = systemic / hematology / blood clotting / blood clotting - prothrombin time + systemic / hematology / reticulocyte / reticulocyte
[40] = group: developmental, systemic / in life observation / body weight / fetal weight
[41] = group: developmental, developmental / developmental malformation / bone / incomplete ossification
[42] = group: maternal, systemic / in life observation / body weight / body weight + systemic / in life observation / food consumption / food consumption + systemic…
[43] = group: developmental, developmental / developmental malformation / bone / [other] + developmental / developmental malformation / bone / fused + developmental / …
[44] = systemic / pathology gross / lymph node / enlarged
[45] = systemic / pathology microscopic / stomach / edema + systemic / pathology microscopic / stomach / hyperkeratosis + systemic / pathology …
[46] = systemic / pathology microscopic / kidney / hyaline droplet + systemic / pathology microscopic / kidney / protein + systemic / pathology …
[47] = systemic / pathology microscopic / stomach / hyperkeratosis + systemic / pathology microscopic / liver / hypertrophy + systemic / pathology …
[48] = systemic / pathology gross / liver / foci
[49] = systemic / pathology gross / liver / foci + systemic / pathology gross / stomach / thickened + systemic / pathology microscopic / liver / …

## O=C(O)COc1ccc(Cl)cc1Cl [2,4-Dichlorophenoxyacetic acid]
Dog [1]; [23]
  LOAEL: 5 mg/kg/day
  NOAEL: 1 mg/kg/day
Dog [1]; [24]
  LEL: 1 mg/kg/day
  NEL: < 1 mg/kg/day
Rat [2]
  LEL: 100 mg/kg/day
  LOAEL: 100 mg/kg/day
  NEL: 15 mg/kg/day
  NOAEL: 15 mg/kg/day
Dog [3]; [25]
  LEL: 0.5 mg/kg/day
  NEL: < 0.5 mg/kg/day
  NOAEL: 1 mg/kg/day
Dog [3]; systemic / in life observation / body weight / body weight gain + systemic / clinical chemistry / alanine aminotransferase (alt/sgpt) / …
  LOAEL: 3.75 mg/kg/day
Mouse [4]; systemic / clinical chemistry / thyroxine (t4) / thyroxine (t4), free + systemic / in life observation / food consumption / food consumption
  LEL: 98.2 mg/kg/day
Mouse [4]; [26]
  LOAEL: 293 mg/kg/day
  NEL: 14.7 mg/kg/day
  NOAEL: 98.2 mg/kg/day
Rat [5]; [27]
  LEL: 75 mg/kg/day
  LOAEL: 75 mg/kg/day
  NEL: 25 mg/kg/day
  NOAEL: 25 mg/kg/day
Rat [5]; [28]
  LEL: 75 mg/kg/day
  LOAEL: 75 mg/kg/day
  NEL: 25 mg/kg/day
  NOAEL: 25 mg/kg/day
Mouse [6]
  LEL: 62.5 mg/kg/day
  LOAEL: 62.5 mg/kg/day
  NEL: 5 mg/kg/day
  NOAEL: 5 mg/kg/day
Rat [7]; [29]
  LOAEL: 73.1 mg/kg/day
  NOAEL: 4.89 mg/kg/day
Rat [7]; [30]
  LEL: 4.89 mg/kg/day
  NEL: < 4.89 mg/kg/day
Dog [8]
  LEL: 3 mg/kg/day
  LOAEL: 3 mg/kg/day
  NEL: 1 mg/kg/day
  NOAEL: 1 mg/kg/day

## N#Cc1nn(-c2c(Cl)cc(C(F)(F)F)cc2Cl)c(N)c1C(F)(F)F [Fipronil-desulfinyl]
Rat [9]
  LEL: 0.594 mg/kg/day
  LOAEL: 0.594 mg/kg/day
  NEL: 0.177 mg/kg/day
  NOAEL: 0.177 mg/kg/day
Rat [10]
  LEL: 0.032 mg/kg/day
  LOAEL: 0.032 mg/kg/day
  NEL: < 0.032 mg/kg/day
  NOAEL: < 0.032 mg/kg/day

## OC12N=C(c3ccccc3)SC1Cc1cc(Cl)ccc12 (stereo not drawn) [HMR1426]
Rabbit [11]
  LEL: 500 mg/kg/day
  LOAEL: > 1000 mg/kg/day
  NEL: < 500 mg/kg/day
  NOAEL: ≥ 1000 mg/kg/day
Rat [12]; [31]
  LEL: 31.5 mg/kg/day
  NEL: < 31.5 mg/kg/day
Rat [12]; [32]
  LOAEL: 315 mg/kg/day
  NOAEL: 31.5 mg/kg/day
Mouse [13]; [33]
  LOAEL: > 1600 mg/kg/day
  NOAEL: ≥ 1600 mg/kg/day
Mouse [13]; [34]
  LEL: 400 mg/kg/day
  NEL: < 400 mg/kg/day
Rabbit [14]; [35]
  LEL: 62.5 mg/kg/day
  NEL: < 62.5 mg/kg/day
Rabbit [14]; [36]
  LOAEL: > 1000 mg/kg/day
  NOAEL: ≥ 1000 mg/kg/day
Rabbit [14]; [37]
  LEL: 62.5 mg/kg/day
  LOAEL: > 1000 mg/kg/day
  NEL: < 62.5 mg/kg/day
  NOAEL: ≥ 1000 mg/kg/day
Dog [15]; [38]
  LOAEL: > 630 mg/kg/day
  NOAEL: ≥ 630 mg/kg/day
Dog [15]; [39]
  LEL: 63 mg/kg/day
  NEL: < 63 mg/kg/day
Rat [16]; [40]
  LEL: 1000 mg/kg/day
  LOAEL: 1000 mg/kg/day
  NEL: 500 mg/kg/day
  NOAEL: 500 mg/kg/day
Rat [16]; [37]
  LEL: 500 mg/kg/day
  LOAEL: 500 mg/kg/day
  NEL: < 500 mg/kg/day
  NOAEL: < 500 mg/kg/day
Rat [17]; [41]
  LEL: 315 mg/kg/day
  LOAEL: 315 mg/kg/day
  NEL: 100 mg/kg/day
  NOAEL: 100 mg/kg/day
Rat [17]; [37]
  LEL: 100 mg/kg/day
  NEL: < 100 mg/kg/day
Rat [17]; [42]
  LOAEL: 315 mg/kg/day
  NOAEL: 100 mg/kg/day

## [Cu+2].[O-]/N=[N+](\[O-])C1CCCCC1.[O-]/N=[N+](\[O-])C1CCCCC1
Rabbit [18]; [43]
  LOAEL: 30 mg/kg/day
  NOAEL: 10 mg/kg/day
Rabbit [18]; [40]
  LEL: 10 mg/kg/day
  NEL: < 10 mg/kg/day
Rabbit [18]; [28]
  LEL: 10 mg/kg/day
  NEL: < 10 mg/kg/day
Rabbit [18]; group: maternal, systemic / in life observation / body weight / body weight gain + systemic / in life observation / food consumption / food consumption
  LOAEL: 30 mg/kg/day
Rabbit [18]; group: maternal, systemic / in life observation / body weight / body weight gain + systemic / in life observation / food consumption / food consumption + …
  NOAEL: 10 mg/kg/day
Rat [19]; [44]
  LEL: 6 mg/kg/day
  NEL: < 6 mg/kg/day
Rat [19]; [45]
  LOAEL: 33 mg/kg/day
  NOAEL: 6 mg/kg/day
Dog [20]
  LEL: 69 mg/kg/day
  LOAEL: 69 mg/kg/day
  NEL: 26 mg/kg/day
  NOAEL: 26 mg/kg/day
Rat [21]; [46]
  LOAEL: 140 mg/kg/day
  NOAEL: 35 mg/kg/day
Rat [21]; [47]
  LEL: 125 mg/kg/day
  NEL: < 125 mg/kg/day
Rat [22]; [48]
  LEL: 6.1 mg/kg/day
  NEL: < 6.1 mg/kg/day
Rat [22]; [49]
  LOAEL: 61 mg/kg/day
  NOAEL: 18.3 mg/kg/day
